According to patent US7288564B2, “Indole derivatives” (Glaxo Group Limited, priority 2000, dated 2007):

Molecular target: T1, human EP4 receptor (Homo sapiens, UniProt P35408)
Assay: [125I]cAMP Scintillation Proximity Assay (cAMP assay), EP4 antagonism
Format: cell-based
Set-up: host or cells: HEK-293 cells
Conditions: HEK-293 cells expressing recombinant human EP4; method of Arunlakshana and Schild; read-out: pKb at EP4 receptors (converted)
Experimental: The cAMP assay utilises HEK-293 cells expressing the recombinant human EP4 receptor, obtained from Receptor Biology, Inc. Beltsville, Md., USA. The cells were cultured in Dulbecco's Modified Eagle Medium—HAM F12 mix (DMEM-F12), containing 10% heat inactivated-foetal bovine serum (FBS) and 2 mM L-glutamine. The cells were either passaged into fresh medium or used in an assay once 90% confluency as determined visually had been achieved.
The cells were harvested by treatment with Versene, re-suspended in fresh culture medium and plated out to yield approximately 10,000 cells per well of a 96-well plate for overnight culture in culture medium additionally supplemented with 3 μM indomethacin. For assay, the culture medium was replaced with assay medium (DMEM-F12 containing 300 μM isobutylmethylxanthine (IBMX) and 3 μM indomethacin) and incubated for 30 minutes. Following this, antagonist was then added at various concentrations such that an entire agonist concentration-effect curve could be obtained in the presence of a single concentration of the antagonist. […] The amount of cAMP in each well was then determined by [^125I]cAMP scintillation proximity assay using a proprietary kit, obtained from Amersham, Buckinghamshire, UK, and according to the manufacturer's instructions.
Data from cAMP assays were expressed as pmol cAMP per well. […]

T1 sequence (P35408 whole entry): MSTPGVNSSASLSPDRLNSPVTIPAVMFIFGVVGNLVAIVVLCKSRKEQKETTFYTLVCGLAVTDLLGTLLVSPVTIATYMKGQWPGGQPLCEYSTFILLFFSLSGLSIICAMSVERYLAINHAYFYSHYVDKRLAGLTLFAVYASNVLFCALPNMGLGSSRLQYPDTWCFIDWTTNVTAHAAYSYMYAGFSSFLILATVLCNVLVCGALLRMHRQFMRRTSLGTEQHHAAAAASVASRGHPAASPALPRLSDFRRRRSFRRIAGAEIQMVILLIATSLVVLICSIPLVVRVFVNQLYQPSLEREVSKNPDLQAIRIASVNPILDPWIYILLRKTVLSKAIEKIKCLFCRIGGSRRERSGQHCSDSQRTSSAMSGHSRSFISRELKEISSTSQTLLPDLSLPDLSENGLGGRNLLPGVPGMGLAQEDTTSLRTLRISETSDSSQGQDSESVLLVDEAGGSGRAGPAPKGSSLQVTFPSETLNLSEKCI

| SMILES | Kb [nM] |
| --- | --- |
| COc1ccc2[nH]c(C)c(CC(=O)Nc3cc(C)ccc3C(=O)O)c2c1 [Example 1, 2-{[(5-methoxy-2-methyl-1H-indol-3-yl)acetyl]amino}-4-methylbenzoic acid] | < 10 |

Molecular target: T1, human EP4 receptor
Assay: Human EP4 Scintillation Proximity Assay (radioligand binding)
Set-up: expressed in transfected cells; host or cells: CHO cells infected with Semliki Forest Virus (SFV-1) particles; membranes prepared
Conditions: membranes of CHO cells expressing human EP4; 1.25 nM [3H]-prostaglandin E2; Cheng-Prusoff; read-out: pKi at EP4 receptors (converted)
Experimental: Quantification of radioligand binding by scintillation proximity assay (SPA) is a long-established principle. Briefly, the affinity of compounds for a receptor is assessed by the specific competition between known quantities of radiolabelled ligand compound for that receptor. Increasing concentrations of compound reduce the amount of radiolabel that binds to the receptor. This gives rise to a diminishing scintillation signal from SPA beads coated with membranes that bear the receptor. The signal may be detected with a suitable scintillation counter and the data generated may be analysed with suitable curve-fitting software.
The human EP4 SPA assay (hereafter referred to as ‘the assay’) utilises membranes prepared from Chinese Hamster Ovary (CHO cells) infected with Semliki Forest Virus (SFV). Genetically engineered SFV-1 viral particles containing the genetic sequence of the human EP4 receptor were used to infect CHO cells resulting in expression of th receptor protein in cellular membranes.
Cells washed free of media are homogenised in a pH-buffered medium containing peptidase inhibitors. A suitable buffer is of the following composition: 50 mM HEPES, 1 mM EDTA, 25 μg/ml bacitracin, 100 μM leupeptin, 1 mM PMSF, 2 μM Pepstatin A, pH adjusted to 7.4 with KOH. Following removal of cell debris by a low-speed centrifugation, a pellet of membranes is prepared by a high-speed (48000 g) centrifugation of the resulting supernatant. Membrane suspensions such as that described may be stored at −80° C. until used.
For assay, membranes expressing human EP4 receptors are diluted in a pH-buffered medium and mixed with SPA beads coated with a suitable substance to facilitate the adhesion of membranes to the beads. The concentrations of membrane protein and SPA beads chosen should result in SPA binding signal of at least 300 corrected counts per minute (CCPM) when tritiated radioligand at a concentration close to its Kd (affinity value) is combined with the mixture. Non-specific binding (nsb) may be determined by competition between the radiolabelled ligand and a saturating concentration of unlabelled ligand. In order to quantify the affinity of EP4 receptor ligands, compounds are diluted in a stepwise manner across the wells of a 96-well plate. Radioligand, compound, and unlabelled ligand are then added to a 96-well plate suitable for the measurement of SPA binding signals prior to the addition of bead/membrane mixture to initiate the binding reaction. Equilibrium may be achieved by incubation at room temperature for 120 minutes prior to scintillation counting. The data so generated may be analysed by means of a computerised curve-fitting routine in order to quantify the concentration of compound that displaces 50% of the specific radioligand binding (IC50). The affinity (pKi) of the compound may be calculated from the IC50 by application of the Cheng-Prusoff correction. Suitable reagents and protocols are: reaction buffer containing 50 mM HEPES, 10 mM MgCl2, pH adjusted to 7.4 with KOH; SPA beads coated with wheatgerm agglutinin; 1.25 nM [^3H]-prostaglandin E2 as radioligand; 10 μM prostaglandin E2 as unlabelled ligand; a three-fold dilution series of compound starting at 10 μM and ending at 0.3 nM is adequate.

| SMILES | Ki [nM] |
| --- | --- |
| CCc1ccc(C(=O)O)c(NC(=O)Cc2c(C)[nH]c3ccc(OC)cc23)c1 [Example 26, 4-ethyl-2-{[(5-methoxy-2-methyl-1H-indol-3-yl)acetyl]amino}benzoic acid] | ≤ 100 |
| COc1ccc2[nH]c(C)c(CC(=O)Nc3cc(Cl)ccc3C(=O)O)c2c1 [Example 11, 4-chloro-2-{[(5-methoxy-2-methyl-1H-indol-3-yl)acetyl]amino}benzoic acid] | ≤ 100 |
| Cc1ccc(C(=O)O)c(NC(=O)Cc2c(C)[nH]c3ccc(Cl)cc23)c1 [Example 21, 2-{[(5-chloro-2-methyl-1H-indol-3-yl)acetyl]amino}-4-methylbenzoic acid] | ≤ 100 |
| Cc1ccc(C(=O)O)c(NC(=O)Cc2c(C)[nH]c3ccccc23)c1 [Example 3, 4-methyl-2-{[(2-methyl-1H-indol-3-yl)acetyl]amino}benzoic acid] | ≤ 100 |
| COc1ccc2[nH]c(C)c(CC(=O)Nc3cc(C)ccc3C(=O)O)c2c1 [Example 1, 2-{[(5-methoxy-2-methyl-1H-indol-3-yl)acetyl]amino}-4-methylbenzoic acid] | ≤ 100 |
| COc1ccc2[nH]c(C)c(CC(=O)Nc3cc(F)ccc3C(=O)O)c2c1 [Example 10, 4-fluoro-2-{[(5-methoxy-2-methyl-1H-indol-3-yl)acetyl]amino}benzoic acid] | ≤ 100 |
| COc1ccc2[nH]c(C)c(CC(=O)Nc3cc(C(F)(F)F)ccc3C(=O)O)c2c1 [Example 17, 2-{[(5-methoxy-2-methyl-1H-indol-3-yl)acetyl]amino}-4-(trifluoromethyl)benzoic acid] | ≤ 100 |
| COc1ccc2[nH]cc(CC(=O)Nc3cc(C)ccc3C(=O)O)c2c1 [Example 7, 2-{[(5-methoxy-1H-indol-3-yl)acetyl]amino}-4-methylbenzoic acid] | ≤ 100 |
| Cc1ccc(C(=O)O)c(NC(=O)Cc2c(-c3ccccc3)[nH]c3ccccc23)c1 [Example 9, 4-methyl-2-{[(2-phenyl-1H-indol-3-yl)acetyl]amino}benzoic acid] | ≤ 100 |
| Cc1ccc(C(=O)O)c(NC(=O)Cc2c[nH]c3ccc(F)cc23)c1 [Example 4, 2-{[(5-fluoro-1H-indol-3-yl)acetyl]amino}-4-methylbenzoic acid] | ≤ 100 |
| Cc1ccc(C(=O)O)c(NC(=O)Cc2c[nH]c3ccccc23)c1 [Example 2, 2-[(1H-indol-3-ylacetyl)amino]-4-methylbenzoic acid] | ≤ 100 |
| COc1cc2[nH]c(C)c(CC(=O)Nc3cc(C)ccc3C(=O)O)c2cc1OC [Example 20, 2-{[(5,6-dimethoxy-2-methyl-1H-indol-3-yl)acetyl]amino}-4-methylbenzoic acid] | ≤ 100 |
| Cc1ccc(C(=O)O)c(NC(=O)Cc2c[nH]c3ccc(Br)cc23)c1 [Example 6, 2-{[(5-bromo-1H-indol-3-yl)acetyl]amino}-4-methylbenzoic acid] | ≤ 100 |
| COc1ccc2[nH]c(C)c(CC(=O)Nc3cc([N+](=O)[O-])ccc3C(=O)O)c2c1 [Example 12, 2-{[(5-methoxy-2-methyl-1H-indol-3-yl)acetyl]amino}-4-nitrobenzoic acid] | ≤ 100 |
| COc1ccc2[nH]c(C)c(CC(=O)Nc3ccccc3C(=O)O)c2c1 [Example 13, 2-{[(5-methoxy-2-methyl-1H-indol-3-yl)acetyl]amino}benzoic acid] | ≤ 100 |
